Measured values as given in ChEMBL document CHEMBL3390848, “Affinity selection and sequence-activity relationships of HIV-1 membrane fusion inhibitors directed at the drug-resistant variants” (Medchemcomm, 2010).
pEC50: −log10 of the molar value. Residues, ends and D or L forms follow the SMILES beside them.

Legend:
[1] = system: Human immunodeficiency virus 1; experiment: Binding affinity to HIV1 His-tagged N-terminal heptad repeat of envelope glycoprotein gp41 assessed as recovery of N54-drug complex after 2 hrs by LC-MS analysis; parameters: concentration or dose not given beside the values
[2] = system: Human immunodeficiency virus 1; experiment: Thermal stability of HIV1 envelope glycoprotein gp41 His-tagged N-terminal heptad repeat N54-drug complex assessed as thermal unfolding transition state by measuring molar ellipticity at 4 to 90 degC by circular dichroic spectra analysis
[3] = system: Human immunodeficiency virus 1; experiment: Antiviral activity against HIV1 NL4-3 harboring gp41 D36G mutant infected in human HeLa cells expressing CD4-LTR-beta-gal assessed as inhibition of viral replication after 48 hrs by MAGI assay; type: functional, organism-based

SMILES | Activity [1] [%] | Tm [2] [°C] | pEC50 [3]
CC[C@H](C)[C@H](NC(=O)[C@H](CC(C)C)NC(=O)[C@H](CCC(=O)O)NC(=O)[C@H](CCC(=O)O)NC(=O)[C@@H](NC(=O)[C@H](CC(C)C)NC(=O)[C@H](CO)NC(=O)[C@@H](NC(=O)[C@H](Cc1ccc(O)cc1)NC(C)=O)[C@@H](C)O)[C@@H](C)CC)C(=O)N[C@@H](CCCCN)C(=O)N[C@@H](CCCCN)C(=O)N[C@@H](CCSC)C(=O)N[C@@H](CCC(=O)O)C(=O)N[C@@H](CCC(=O)O)C(=O)N[C@@H](CCC(N)=O)C(=O)N[C@@H](CCC(N)=O)C(=O)N[C@@H](CCCCN)C(=O)N[C@@H](CCCCN)C(=O)N[C@@H](CC(N)=O)C(=O)N[C@@H](CCC(=O)O)C(=O)N[C@@H](CCC(=O)O)C(=O)N[C@@H](CCC(=O)O)C(=O)N[C@@H](CC(C)C)C(=O)N[C@@H](CCCCN)C(=O)N[C@@H](CCCCN)C(=O)N[C@@H](CC(C)C)C(=O)N[C@@H](CCC(=O)O)C(=O)N[C@@H](CCC(=O)O)C(=O)N[C@@H](Cc1c[nH]c2ccccc12)C(=O)N[C@@H](C)C(=O)N[C@@H](CCCCN)C(=O)N[C@@H](CCCCN)C(=O)N[C@@H](Cc1c[nH]c2ccccc12)C(=O)N[C@@H](CC(N)=O)C(=O)N[C@@H](Cc1c[nH]c2ccccc12)C(=O)N[C@@H](Cc1ccccc1)C(N)=O (Ac-YTSLIEELIKKMEEQQKKNEEELKKLEEWAKKWNWF-NH2) | 9.9 | 79 | 9.70
CC[C@H](C)[C@H](NC(=O)[C@H](CC(C)C)NC(=O)[C@H](CCC(=O)O)NC(=O)[C@H](CCC(=O)O)NC(=O)[C@@H](NC(=O)[C@H](CC(C)C)NC(=O)[C@H](CO)NC(=O)[C@@H](NC(=O)[C@H](Cc1ccc(O)cc1)NC(C)=O)[C@@H](C)O)[C@@H](C)CC)C(=O)N[C@@H](CCCCN)C(=O)N[C@@H](CCCCN)C(=O)N[C@@H](CO)C(=O)N[C@@H](CCC(=O)O)C(=O)N[C@@H](CCC(=O)O)C(=O)N[C@@H](CC(=O)O)C(=O)N[C@@H](CCC(N)=O)C(=O)N[C@@H](CCCCN)C(=O)N[C@@H](CCCCN)C(=O)N[C@@H](CC(N)=O)C(=O)N[C@@H](CCC(=O)O)C(=O)N[C@@H](CCC(=O)O)C(=O)N[C@@H](CCC(=O)O)C(=O)N[C@@H](CC(C)C)C(=O)N[C@@H](CCCCN)C(=O)N[C@@H](CCCCN)C(=O)N[C@@H](CC(C)C)C(=O)N[C@@H](CCC(=O)O)C(=O)N[C@@H](CCC(=O)O)C(=O)N[C@@H](Cc1c[nH]c2ccccc12)C(=O)N[C@@H](C)C(=O)N[C@@H](CCCCN)C(=O)N[C@@H](CCCCN)C(=O)N[C@@H](Cc1c[nH]c2ccccc12)C(=O)N[C@@H](CC(N)=O)C(=O)N[C@@H](Cc1c[nH]c2ccccc12)C(=O)N[C@@H](Cc1ccccc1)C(N)=O (Ac-YTSLIEELIKKSEEDQKKNEEELKKLEEWAKKWNWF-NH2) | 8.2 | 71.4 | 8.46
CC[C@H](C)[C@H](NC(=O)[C@H](CCC(=O)O)NC(=O)[C@H](CCC(=O)O)NC(=O)[C@H](CO)NC(=O)[C@H](CCCCN)NC(=O)[C@H](CCCCN)NC(=O)[C@@H](NC(=O)[C@H](CC(C)C)NC(=O)[C@H](CCC(=O)O)NC(=O)[C@H](CCC(=O)O)NC(=O)[C@@H](NC(=O)[C@H](CC(C)C)NC(=O)[C@H](CO)NC(=O)[C@@H](NC(=O)[C@H](Cc1ccc(O)cc1)NC(C)=O)[C@@H](C)O)[C@@H](C)CC)[C@@H](C)CC)C(=O)N[C@@H](CCC(N)=O)C(=O)N[C@@H](CCCCN)C(=O)N[C@@H](CCCCN)C(=O)N[C@@H](CC(N)=O)C(=O)N[C@@H](CCC(=O)O)C(=O)N[C@@H](CCC(=O)O)C(=O)N[C@@H](CCC(=O)O)C(=O)N[C@@H](CC(C)C)C(=O)N[C@@H](CCCCN)C(=O)N[C@@H](CCCCN)C(=O)N[C@@H](CC(C)C)C(=O)N[C@@H](CCC(=O)O)C(=O)N[C@@H](CCC(=O)O)C(=O)N[C@@H](Cc1c[nH]c2ccccc12)C(=O)N[C@@H](C)C(=O)N[C@@H](CCCCN)C(=O)N[C@@H](CCCCN)C(=O)N[C@@H](Cc1c[nH]c2ccccc12)C(=O)N[C@@H](CC(N)=O)C(=O)N[C@@H](Cc1c[nH]c2ccccc12)C(=O)N[C@@H](Cc1ccccc1)C(N)=O (Ac-YTSLIEELIKKSEEIQKKNEEELKKLEEWAKKWNWF-NH2) | 10.4 | 74 | 9.10
CC[C@H](C)[C@H](NC(=O)[C@H](CC(C)C)NC(=O)[C@H](CCC(=O)O)NC(=O)[C@H](CCC(=O)O)NC(=O)[C@@H](NC(=O)[C@H](CC(C)C)NC(=O)[C@H](CO)NC(=O)[C@@H](NC(=O)[C@H](Cc1ccc(O)cc1)NC(C)=O)[C@@H](C)O)[C@@H](C)CC)C(=O)N[C@@H](CCCCN)C(=O)N[C@@H](CCCCN)C(=O)N[C@@H](CO)C(=O)N[C@@H](CCC(=O)O)C(=O)N[C@@H](CCC(=O)O)C(=O)N[C@@H](Cc1ccc(O)cc1)C(=O)N[C@@H](CCC(N)=O)C(=O)N[C@@H](CCCCN)C(=O)N[C@@H](CCCCN)C(=O)N[C@@H](CC(N)=O)C(=O)N[C@@H](CCC(=O)O)C(=O)N[C@@H](CCC(=O)O)C(=O)N[C@@H](CCC(=O)O)C(=O)N[C@@H](CC(C)C)C(=O)N[C@@H](CCCCN)C(=O)N[C@@H](CCCCN)C(=O)N[C@@H](CC(C)C)C(=O)N[C@@H](CCC(=O)O)C(=O)N[C@@H](CCC(=O)O)C(=O)N[C@@H](Cc1c[nH]c2ccccc12)C(=O)N[C@@H](C)C(=O)N[C@@H](CCCCN)C(=O)N[C@@H](CCCCN)C(=O)N[C@@H](Cc1c[nH]c2ccccc12)C(=O)N[C@@H](CC(N)=O)C(=O)N[C@@H](Cc1c[nH]c2ccccc12)C(=O)N[C@@H](Cc1ccccc1)C(N)=O (Ac-YTSLIEELIKKSEEYQKKNEEELKKLEEWAKKWNWF-NH2) | 4.9 | 67.7 | 8.64
CC[C@H](C)[C@H](NC(=O)[C@H](CC(C)C)NC(=O)[C@H](CCC(=O)O)NC(=O)[C@H](CCC(=O)O)NC(=O)[C@@H](NC(=O)[C@H](CC(C)C)NC(=O)[C@H](CO)NC(=O)[C@@H](NC(=O)[C@H](Cc1ccc(O)cc1)NC(C)=O)[C@@H](C)O)[C@@H](C)CC)C(=O)N[C@@H](CCCCN)C(=O)N[C@@H](CCCCN)C(=O)N[C@@H](CO)C(=O)N[C@@H](CCC(=O)O)C(=O)N[C@@H](CCC(=O)O)C(=O)N[C@@H](CC(C)C)C(=O)N[C@@H](CCC(N)=O)C(=O)N[C@@H](CCCCN)C(=O)N[C@@H](CCCCN)C(=O)N[C@@H](CC(N)=O)C(=O)N[C@@H](CCC(=O)O)C(=O)N[C@@H](CCC(=O)O)C(=O)N[C@@H](CCC(=O)O)C(=O)N[C@@H](CC(C)C)C(=O)N[C@@H](CCCCN)C(=O)N[C@@H](CCCCN)C(=O)N[C@@H](CC(C)C)C(=O)N[C@@H](CCC(=O)O)C(=O)N[C@@H](CCC(=O)O)C(=O)N[C@@H](Cc1c[nH]c2ccccc12)C(=O)N[C@@H](C)C(=O)N[C@@H](CCCCN)C(=O)N[C@@H](CCCCN)C(=O)N[C@@H](Cc1c[nH]c2ccccc12)C(=O)N[C@@H](CC(N)=O)C(=O)N[C@@H](Cc1c[nH]c2ccccc12)C(=O)N[C@@H](Cc1ccccc1)C(N)=O (Ac-YTSLIEELIKKSEELQKKNEEELKKLEEWAKKWNWF-NH2) | 10.4 | 77.4 | 9.30
